Measurements reported in article PMC9250534, “Synthesis and direct assay of large macrocycle diversities by combinatorial late-stage modification at picomole scale” (Nature Communications, 2022).
Numbered stars: 1 amine (or outer) side, 2 acyl side, 3 side chain; on linkers, the order of the positions; unused ones are H or OH. Bridge positions count the residues as written; N and C are the ends. Square brackets hold non-standard residues; d marks the D form. Side chains are listed from the residue outwards. Peptide text beside a SMILES is read from it. * marks the point of attachment. 1,2,3Thiadiazole5CO(4-Me) = Cc1nnsc1C(=O)*; 2Thenoyl(5-Cl) = O=C(c1ccc(Cl)s1)*; Benzoyl(4-Cl) = O=C(c1ccc(Cl)cc1)*; Pentanoyl(4-Me) = CC(C)CCC(=O)*; Cysteamide = C(CS[*:3])N[*:1]; X1 = O=C(/C=C/c1ccccc1)*; Api = NC1(C(=O)O)CCNCC1; Dap = NC[CH](N)C(=O)O; Mpa = O=C(O)CCS

Molecular target: MDM2 (Homo sapiens, UniProt Q00987)
Sequence (Q00987 whole entry): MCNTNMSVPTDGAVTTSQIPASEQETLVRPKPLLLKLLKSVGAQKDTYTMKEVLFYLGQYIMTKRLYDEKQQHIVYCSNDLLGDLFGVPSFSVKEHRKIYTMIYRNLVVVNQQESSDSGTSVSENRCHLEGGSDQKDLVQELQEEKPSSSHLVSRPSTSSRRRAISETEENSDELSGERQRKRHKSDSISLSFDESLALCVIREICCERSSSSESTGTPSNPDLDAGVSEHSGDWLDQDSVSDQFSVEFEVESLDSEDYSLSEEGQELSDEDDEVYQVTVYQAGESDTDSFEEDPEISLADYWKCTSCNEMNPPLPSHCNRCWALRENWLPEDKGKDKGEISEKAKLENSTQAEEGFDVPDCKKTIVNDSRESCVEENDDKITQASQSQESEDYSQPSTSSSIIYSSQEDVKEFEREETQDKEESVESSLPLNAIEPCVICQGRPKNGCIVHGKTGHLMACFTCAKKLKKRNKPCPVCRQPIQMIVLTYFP
Assay: MDM2 binding screen: displacement of fluorescent p53 peptide probe FP53 (fluorescence polarization)
Conditions: for fraction fluorescent probe displaced: 10 µM macrocycle concentration, crude acylated macrocycle (scaffold Mpa-AA1-AA2-AA3 x carboxylic acid), p53-based fluorescent peptide, human MDM2; for fraction fluorescent probe displaced, Screen: initial screen; for fraction fluorescent probe displaced, Screen / fraction fluorescent probe displaced, Replicate: crude macrocycle reactions
How it was run: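 Single-point screen: one fluorescence anisotropy reading at 25 °C (485 nm excitation, 535 nm emission) per macrocycle. Crude macrocycle reactions, final 10 µM, were scored for displacing the fluorescent p53 peptide from human MDM2.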

Question: With `CC(C)CCC(=O)NC[C@@H]1NC(=O)[C@@H]2CCCN2C(=O)CCSSCCNC(=O)[C@H](Cc2c[nH]c3ccccc23)NC1=O` [X-B1-D3-W + A68] ([Mpa]P[Dap](Pentanoyl(4-Me))W-Cysteamide; disulfide 1-C) as the molecule, how does the “fraction fluorescent probe displaced” value read?
Answer: -0.02228

Question: How did the “fraction fluorescent probe displaced, Screen” value (Acid 91) turn out when `O=C1NCCSSCCC(=O)N2CCC[C@H]2C(=O)NC2(CCN(C(=O)/C=C/c3ccccc3)CC2)C(=O)N[C@H]1Cc1c[nH]c2ccccc12` [X B1 D6 W Acid 91] ([Mpa]P[Api](X1)W-Cysteamide; disulfide 1-C) was run?
Answer: -0.08

Question: And the “fraction fluorescent probe displaced, Replicate” value (Acid 91)?
Answer: -0.08

Question: `O=C1NCCSSCCC(=O)N2C[C@@H](NC(=O)c3ccc(Cl)cc3)C[C@H]2C(=O)N[C@@H](Cc2c[nH]c3ccccc23)C(=O)NCc2cccc1c2` [X D5 W B5 Acid 25] was tested. Which “fraction fluorescent probe displaced, Screen” value (Acid 25) did it give?
Answer: 0.0569

Question: And the “fraction fluorescent probe displaced, Replicate” value (Acid 25)?
Answer: 0.0465

Question: For `O=C1CCSSCCNC(=O)C(Cc2c[nH]c3ccccc23)NC(=O)C2CN(C(=O)C=Cc3ccccc3)CCN2C(=O)c2cccc(c2)CN1` (centres unmarked) [X B5 D7 W Acid 91], which “fraction fluorescent probe displaced, Screen” value (Acid 91) is on record?
Answer: -0.10

Question: What about the “fraction fluorescent probe displaced, Replicate” value (Acid 91) of the same molecule?
Answer: -0.06

Question: How did the “fraction fluorescent probe displaced” value turn out when `Cc1nnsc1C(=O)NC[C@@H]1NC(=O)[C@@H]2CCCN2C(=O)CCSSCCNC(=O)[C@H](Cc2c[nH]c3ccccc23)NC1=O` [X-B1-D3-W + A15] ([Mpa]P[Dap](1,2,3Thiadiazole5CO(4-Me))W-Cysteamide; disulfide 1-C) was run?
Answer: 0.02409

Question: With `O=C1CCSSCCNC(=O)C2CN(C(=O)c3ccc(Cl)s3)CCN2C(=O)C2CCCN(C2)C(=O)C(Cc2c[nH]c3ccccc23)N1` (centres unmarked) [X W B4 D7 Acid 14] as the molecule, how does the “fraction fluorescent probe displaced, Screen” value (Acid 14) read?
Answer: 0.34

Question: What about the “fraction fluorescent probe displaced, Replicate” value (Acid 14) of the same molecule?
Answer: 0.33

Question: For `O=C(NC1CC2C(=O)NC(Cc3ccccc3)C(=O)N3CCCC(C3)C(=O)NCCSSCCC(=O)N2C1)c1ccc(Cl)s1` (centres unmarked) [X D5 F B4 Acid 14], which “fraction fluorescent probe displaced, Screen” value (Acid 14) is on record?
Answer: 0.0241

Question: What about the “fraction fluorescent probe displaced, Replicate” value (Acid 14) of the same molecule?
Answer: 0.10

Question: What does the source list for `O=C(C=Cc1ccccc1)NC1CC2C(=O)NC(Cc3ccccc3)C(=O)NCCSSCCC(=O)NCCC(=O)N2C1` (centres unmarked) [X B2 D5 F Acid 91]?
Answer: fraction fluorescent probe displaced, Screen (Acid 91): -0.17; fraction fluorescent probe displaced, Replicate (Acid 91): -0.08

Question: Which results are given for `O=C1CCNC(=O)C(Cc2c[nH]c3ccccc23)NC(=O)C2CN(C(=O)c3ccc(Cl)cc3)CCN2C(=O)CCSSCCN1` (centres unmarked) [X D7 W B2 Acid 25]?
Answer: fraction fluorescent probe displaced, Screen (Acid 25): 0.22; fraction fluorescent probe displaced, Replicate (Acid 25): 0.17

Question: For `O=C(/C=C/c1ccccc1)NC[C@@H]1NC(=O)CCSSCCNC(=O)CCNC(=O)[C@H](Cc2c[nH]c3ccccc23)NC1=O` [X D3 W B2 Acid 91], which “fraction fluorescent probe displaced, Screen” value (Acid 91) is on record?
Answer: 0.19

Question: What about the “fraction fluorescent probe displaced, Replicate” value (Acid 91) of the same molecule?
Answer: 0.0168

Question: Which results are given for `O=C1CCSSCCNC(=O)C(Cc2ccccc2)NC(=O)C2CC(NC(=O)c3ccc(Cl)cc3)CN2C(=O)c2cccc(c2)CN1` (centres unmarked) [X B5 D5 F Acid 25]?
Answer: fraction fluorescent probe displaced, Screen (Acid 25): 0.13; fraction fluorescent probe displaced, Replicate (Acid 25): 0.05

Question: Which results are given for `O=C1CCSSCCNC(=O)[C@@H]2CCCN2C(=O)C2(CCN(C(=O)c3ccc(Cl)cc3)CC2)NC(=O)[C@H](Cc2ccccc2)N1` [X F D6 B1 Acid 25] ([Mpa]F[Api](Benzoyl(4-Cl))P-Cysteamide; disulfide 1-C)?
Answer: fraction fluorescent probe displaced, Screen (Acid 25): 0.0244; fraction fluorescent probe displaced, Replicate (Acid 25): 0.17

Question: With `O=C1CCSSCCNC(=O)C(Cc2ccccc2)NC(=O)C2CC(NC(=O)c3ccc(Cl)cc3)CN2C(=O)CCN1` (centres unmarked) [X B2 D5 F Acid 25] as the molecule, how does the “fraction fluorescent probe displaced, Screen” value (Acid 25) read?
Answer: 0.16

Question: And the “fraction fluorescent probe displaced, Replicate” value (Acid 25)?
Answer: 0.05

Question: Which “fraction fluorescent probe displaced, Screen” value (Acid 14) does the source give for `O=C1CCSSCCNC(=O)C2(CCN(C(=O)c3ccc(Cl)s3)CC2)NC(=O)c2cccc(c2)CNC(=O)[C@H](Cc2c[nH]c3ccccc23)N1` [X W B5 D6 Acid 14] here?
Answer: 0.14

Question: And the “fraction fluorescent probe displaced, Replicate” value (Acid 14)?
Answer: 0.17

Question: With `CC(=O)NCC(=O)NC[C@@H]1NC(=O)[C@@H]2CCCN2C(=O)CCSSCCNC(=O)[C@H](Cc2c[nH]c3ccccc23)NC1=O` [X-B1-D3-W + A83] ([Mpa]P[Dap]([Gly-Ac])W-Cysteamide; disulfide 1-C) as the molecule, how does the “fraction fluorescent probe displaced” value read?
Answer: 0.1654

Question: Which results are given for `O=C1NC(Cc2c[nH]c3ccccc23)C(=O)N2CCN(C(=O)c3ccc(Cl)s3)CC2C(=O)NCCSSCCC(=O)N2CCCC12` (centres unmarked) [X B1 W D7 Acid 14]?
Answer: fraction fluorescent probe displaced, Screen (Acid 14): 0.08; fraction fluorescent probe displaced, Replicate (Acid 14): 0.15

Question: With `Cc1nnsc1C(=O)NC[C@@H]1NC(=O)[C@@H]2CCCN2C(=O)CCSSCCNC(=O)[C@H](Cc2ccccc2)NC1=O` [X-B1-D3-F + A15] ([Mpa]P[Dap](1,2,3Thiadiazole5CO(4-Me))F-Cysteamide; disulfide 1-C) as the molecule, how does the “fraction fluorescent probe displaced” value read?
Answer: -0.03374

Question: `O=C(C=Cc1ccccc1)NCC1NC(=O)CCSSCCNC(=O)C(Cc2c[nH]c3ccccc23)NC(=O)CCNC1=O` (centres unmarked) [X D3 B2 W Acid 91] was tested. Which “fraction fluorescent probe displaced, Screen” value (Acid 91) did it give?
Answer: 0.11

Question: What about the “fraction fluorescent probe displaced, Replicate” value (Acid 91) of the same molecule?
Answer: -0.0333

Question: For `O=C(NC[C@@H]1NC(=O)[C@H](Cc2ccccc2)NC(=O)[C@@H]2CCCN2C(=O)CCSSCCNC1=O)c1ccc(Cl)s1` [X B1 F D3 Acid 14] ([Mpa]PF[Dap](2Thenoyl(5-Cl))-Cysteamide; disulfide 1-C), which “fraction fluorescent probe displaced, Screen” value (Acid 14) is on record?
Answer: 0.08

Question: What about the “fraction fluorescent probe displaced, Replicate” value (Acid 14) of the same molecule?
Answer: 0.10

Question: Which “fraction fluorescent probe displaced, Screen” value (Acid 91) does the source give for `O=C(C=Cc1ccccc1)NC1CC2C(=O)NCCSSCCC(=O)NCc3cccc(c3)C(=O)NC(Cc3c[nH]c4ccccc34)C(=O)N2C1` (centres unmarked) [X B5 W D5 Acid 91] here?
Answer: 0.00268

Question: And the “fraction fluorescent probe displaced, Replicate” value (Acid 91)?
Answer: 0.12

Question: `O=C1CCSSCCNC(=O)C(CNC(=O)c2ccc(Cl)s2)NC(=O)C2CCCN2C(=O)C(Cc2ccccc2)N1` (centres unmarked) [X F B1 D3 Acid 14] ([Mpa]FP[Dap](2Thenoyl(5-Cl))-Cysteamide; disulfide 1-C; configuration not given here) was tested. Which “fraction fluorescent probe displaced, Screen” value (Acid 14) did it give?
Answer: 0.17

Question: What about the “fraction fluorescent probe displaced, Replicate” value (Acid 14) of the same molecule?
Answer: 0.07

Question: What does the source list for `O=C(/C=C/c1ccccc1)NC[C@@H]1NC(=O)CCSSCCNC(=O)c2cccc(c2)CNC(=O)[C@H](Cc2c[nH]c3ccccc23)NC1=O` [X D3 W B5 Acid 91]?
Answer: fraction fluorescent probe displaced, Screen (Acid 91): 0.24; fraction fluorescent probe displaced, Replicate (Acid 91): 0.32

Question: Which “fraction fluorescent probe displaced, Screen” value (Acid 25) does the source give for `O=C1CCSSCCNC(=O)[C@H](Cc2c[nH]c3ccccc23)NC(=O)CCNC(=O)[C@H](CNC(=O)c2ccc(Cl)cc2)N1` [X D3 B2 W Acid 25] here?
Answer: 0.12

Question: And the “fraction fluorescent probe displaced, Replicate” value (Acid 25)?
Answer: 0.0465

Question: `O=C1CCSSCCNC(=O)C2CCCN2C(=O)C2CN(C(=O)C=Cc3ccccc3)CCN2C(=O)C(Cc2c[nH]c3ccccc23)N1` (mixture of isomers) [X W D7 B1 Acid 91] was tested. Which “fraction fluorescent probe displaced, Screen” value (Acid 91) did it give?
Answer: -0.08

Question: What about the “fraction fluorescent probe displaced, Replicate” value (Acid 91) of the same molecule?
Answer: 0.0168

Question: How did the “fraction fluorescent probe displaced, Screen” value (Acid 25) turn out when `O=C1NC(Cc2c[nH]c3ccccc23)C(=O)NCCSSCCC(=O)N2CCN(C(=O)c3ccc(Cl)cc3)CC2C(=O)NCc2cccc1c2` (centres unmarked) [X D7 B5 W Acid 25] was run?
Answer: 0.22

Question: What about the “fraction fluorescent probe displaced, Replicate” value (Acid 25) of the same molecule?
Answer: 0.20

Question: Which results are given for `O=C(N[C@H]1C[C@H]2C(=O)N[C@@H](Cc3c[nH]c4ccccc34)C(=O)NCCSSCCC(=O)N3CCC[C@@H](C3)C(=O)N2C1)c1ccc(Cl)s1` [X B4 D5 W Acid 14]?
Answer: fraction fluorescent probe displaced, Screen (Acid 14): 0.11; fraction fluorescent probe displaced, Replicate (Acid 14): 0.0211

Question: `O=C1NC(Cc2ccccc2)C(=O)N2CCN(C(=O)c3ccc(Cl)cc3)CC2C(=O)NCCSSCCC(=O)N2CCCC1C2` (centres unmarked) [X B4 F D7 Acid 25] was tested. Which “fraction fluorescent probe displaced, Screen” value (Acid 25) did it give?
Answer: 0.09

Question: And the “fraction fluorescent probe displaced, Replicate” value (Acid 25)?
Answer: 0.10
